This note sets out measurements from patent US20120165310A1, “ETHER DERIVATIVES OF BICYCLIC HETEROARYLS” (NOVARTIS AG, priority 2009, published 2012).

The term IC50 denotes the concentration needed to halve the response being measured. Higher therefore signals weaker potency.

Data set [1] in a line: In vitro metabolic identification study with rat liver microsomes. The conditions noted are these: for formation of the phenolic metabolite X / metabolic stability relative to ex.102 of WO02/092559: rat and human liver microsomes; for Relative peak area after incubation, Parent / Relative peak area after incubation, Phenol metabolite X: rat liver microsomes, 1 hour incubation, parent 5 μM. Format: in vitro ADME. The protocol:
(§1) In vitro metabolic identification studies with, Example 2 and Example 3 with human and rat liver microsomes are summarized in the table below in which the compounds were incubated for 1 hour with rat or human liver microsome preparations.
(§2) The metabolism of unlabelled compound was examined following in vitro incubations with liver microsomes from rat and human. The samples were analyzed by capillary-HPLC/MS^(n) and screened for potential metabolites of the compound.
A general note: Liver microsomes are vesicles of endoplasmic reticulum, rich in cytochrome P450 enzymes.

The next data set addresses T1, IGF-1R (Homo sapiens, UniProt P08069).
T1 construct: expressed in transfected cells; host or cells: Hek293 (Hek293-IGF1R)
Description: Cellular IGF-1R assay: capture ELISA (MSD) of receptor phosphorylation in Hek293 cells. The settings on record: Hek293-IGF1R cells, 1 h pre-incubation, 10 min IGF stimulation, pIGF1R capture ELISA. The data set is classed as cell-based. Summed up:
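IC50 from 4-parameter fit of IGF1R phosphorylation, normalised to IGF-stimulated and unstimulated controls, measured by MSD capture ELISA on lysates. Hek293-IGF1R cells in starvation medium got compound 1 h (top 10 μM, 3-fold steps, 0.1% DMSO) before a 10 min pulse of 1.0 ng/μL IGF.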
(In general: An ELISA detects its analyte on a solid surface through an enzyme-linked reagent.)

Data set [2] can be described thus: In vitro metabolic identification study with human liver microsomes. The data set is classed as in vitro ADME. The conditions noted are these: 1 hour incubation, parent 5 μM. How it is done: as §1, §2

Structures are written as SMILES.

T1 sequence (P08069 31-1367): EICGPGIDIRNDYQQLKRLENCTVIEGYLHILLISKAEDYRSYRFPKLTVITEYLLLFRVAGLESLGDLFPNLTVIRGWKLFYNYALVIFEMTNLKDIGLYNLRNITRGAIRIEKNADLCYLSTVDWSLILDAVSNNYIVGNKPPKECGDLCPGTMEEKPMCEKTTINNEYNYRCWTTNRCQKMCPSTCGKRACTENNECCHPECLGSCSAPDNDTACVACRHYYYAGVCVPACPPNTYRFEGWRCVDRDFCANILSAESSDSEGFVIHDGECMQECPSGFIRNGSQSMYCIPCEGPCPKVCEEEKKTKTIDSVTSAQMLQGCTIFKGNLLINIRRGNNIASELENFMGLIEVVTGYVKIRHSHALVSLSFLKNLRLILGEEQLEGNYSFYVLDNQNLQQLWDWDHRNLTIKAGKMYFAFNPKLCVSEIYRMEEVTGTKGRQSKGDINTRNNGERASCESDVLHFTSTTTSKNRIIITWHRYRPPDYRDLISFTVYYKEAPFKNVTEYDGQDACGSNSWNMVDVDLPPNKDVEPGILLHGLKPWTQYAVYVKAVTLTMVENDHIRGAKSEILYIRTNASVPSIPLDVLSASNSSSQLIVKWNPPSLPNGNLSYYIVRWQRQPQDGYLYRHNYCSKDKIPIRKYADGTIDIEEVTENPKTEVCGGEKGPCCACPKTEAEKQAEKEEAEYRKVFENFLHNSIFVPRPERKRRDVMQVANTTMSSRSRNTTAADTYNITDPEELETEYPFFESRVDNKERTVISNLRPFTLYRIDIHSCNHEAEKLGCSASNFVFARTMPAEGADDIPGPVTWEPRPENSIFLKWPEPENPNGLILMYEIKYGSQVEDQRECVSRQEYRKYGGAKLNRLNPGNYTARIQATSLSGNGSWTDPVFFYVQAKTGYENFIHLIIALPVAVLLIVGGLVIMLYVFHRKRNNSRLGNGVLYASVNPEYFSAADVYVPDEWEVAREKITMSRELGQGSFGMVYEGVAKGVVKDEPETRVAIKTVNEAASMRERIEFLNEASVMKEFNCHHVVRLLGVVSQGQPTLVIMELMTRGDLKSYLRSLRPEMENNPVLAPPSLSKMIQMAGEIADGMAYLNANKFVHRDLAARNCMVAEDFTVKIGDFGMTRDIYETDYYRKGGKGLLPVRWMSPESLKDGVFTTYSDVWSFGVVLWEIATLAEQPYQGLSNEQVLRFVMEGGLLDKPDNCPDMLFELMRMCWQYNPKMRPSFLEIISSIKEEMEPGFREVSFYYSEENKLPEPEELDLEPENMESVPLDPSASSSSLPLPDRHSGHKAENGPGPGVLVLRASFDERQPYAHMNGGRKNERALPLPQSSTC

Consider `Nc1ncnc2c1c(-c1cccc(OC[C@H]3CCCCO3)c1)cn2[C@H]1C[C@@H](CN2CCC2)C1` (single isomer, unassigned) [Example 2], for which, in data set [1], the “formation of the phenolic metabolite X” value is “no evidence of formation”; the “metabolic stability relative to ex.102 of WO02/092559” value is listed as “Greater metabolic stability”; the “Relative peak area after incubation, Parent” value (from here on “Relative peak area … Parent”) stood at 69.3%; the “Relative peak area after incubation, Phenol metabolite X” value is recorded as “not detected”. Besides, the IC50 on IGF-1R lay within 51 to 99 nM. Besides, in data set [2], the “Relative peak area … Parent” value is 90.3% and the “Relative peak area after incubation, Phenol metabolite X” value was “not detected”. For `CC1(C)CCC(COc2cccc(-c3cn([C@H]4CC[C@H](N5CCOCC5)CC4)c4ncnc(N)c34)c2)O1` (relative stereo) [Example 64, 5-[3-(5,5-dimethyl-tetrahydro-furan-2-ylmethoxy)-phenyl]-7-(trans-4-morpholin-4-yl-cyclohexyl)-7H-pyrrolo[2,3-d]pyrimidin-4-ylamine], the IC50 against IGF-1R amounted to 367 nM.

`Nc1ncnc2c1c(-c1cccc(OCC34CCC(CC3)O4)c1)cn2[C@H]1CC[C@@H](N2CCC(F)(F)CC2)CC1` [Example 116, 5-(3-(7-oxabicyclo[2.2.1]heptan-1-ylmethoxy)phenyl)-7-((1S,4S)-4-(4,4-difluoropiperidin-1-yl)cyclohexyl)-7H-pyrrolo[2,3-d]pyrimidin-4-amine] had an IC50 at IGF-1R of 224 nM. With `Nc1ncnc2c1c(-c1cccc(OCC3CCCCO3)c1)cn2[C@H]1C[C@@H](CN2CCC(F)(F)CC2)C1` (relative stereo) [Example 31, 7-[cis-3-(4,4-difluoro-piperidin-1-ylmethyl)-cyclobutyl]-5-[3-(tetrahydro-pyran-2-ylmethoxy)-phenyl]-7H-pyrrolo[2,3-d]pyrimidin-4-ylamine], the IC50 against IGF-1R worked out at 408 nM. `Nc1ncnc2c1c(-c1cccc(OCC34CCC(CC3)O4)c1)cn2[C@H]1CC[C@@H](N2CC[C@@H](O)C2)CC1` [Example 128, (R)-1-((1S,4S)-4-(5-(3-(7-oxabicyclo[2.2.1]heptan-1-ylmethoxy)phenyl)-4-amino-7H-pyrrolo[2,3-d]pyrimidin-7-yl)cyclohexyl)pyrrolidin-3-ol] displayed an IC50 on IGF-1R of 150 nM. The molecule `Cn1nnnc1C[C@]1(O)C[C@H](n2cc(-c3cccc(OCC45CCC(CC4)O5)c3)c3c(N)ncnc32)C1` [Example 217, (E)-3-{4-Amino-5-[3-(7-oxa-bicyclo[2.2.1]hept-1-ylmethoxy)-phenyl]-pyrrolo[2,3-d]pyrimidin-7-yl}-1-(1-methyl-1H-tetrazol-5-ylmethyl)-cyclobutanol] gave an IC50 against IGF-1R of 598 nM.

`Nc1ncnc2c1c(-c1cccc(OCC34CCC(CC3)O4)c1)cn2[C@H]1CC[C@@H](n2ccnc2)CC1` [Example 138, 7-((1S,4S)-4-(1H-imidazol-1-yl)cyclohexyl)-5-(3-(7-oxabicyclo[2.2.1]heptan-1-ylmethoxy)phenyl)-7H-pyrrolo[2,3-d]pyrimidin-4-amine]: the IC50 at IGF-1R is 241 nM. `Nc1ncnc2c1c(-c1cccc(OCC3CCCCO3)c1)cn2C1CC(CN2CCCC2C(O)C(F)(F)F)C1` [Example 120, (1S)-1-((2S)-1-(((1S,3R)-3-(4-amino-5-(3-((tetrahydro-2H-pyran-2-yl)methoxy)phenyl)-7H-pyrrolo[2,3-d]pyrimidin-7-yl)cyclobutyl)methyl)pyrrolidin-2-yl)-2,2,2-trifluoroethanol] displayed an IC50 at IGF-1R of 195 nM. Turning to `Nc1ncnc2c1c(-c1cccc(OCC34CCC(CC3)O4)c1)cn2[C@H]1C[C@@H](CN2C(=O)c3ccccc3C2=O)C1` [Example 108, 2-(((1S,3S)-3-(5-(3-(7-oxabicyclo[2.2.1]heptan-1-ylmethoxy)phenyl)-4-amino-7H-pyrrolo[2,3-d]pyrimidin-7-yl)cyclobutyl)methyl)isoindoline-1,3-dione], at IGF-1R, the IC50 worked out at 327 nM. The same measure, in the same setting: the value for `NC(=O)C1C2CCC(C2)N1CC1CC(n2cc(-c3cccc(OCC4CCCCO4)c3)c3c(N)ncnc32)C1` [Example 95, (1R,3R,45)-2-(((1s, 3S)-3-(4-amino-5-(3-((tetrahydro-2H-pyran-2-yl)methoxy)phenyl)-7H-pyrrolo[2,3-d]pyrimidin-7-yl)cyclobutyl)methyl)-2-azabicyclo[2.2.1]heptane-3-carboxamide] was 219 nM. The same measure, in the same setting: the value for `CC1(C)CCC(COc2cccc(-c3cn([C@H]4C[C@@H](CN5CCS(=O)(=O)CC5)C4)c4ncnc(N)c34)c2)O1` (single isomer, unassigned) [Example 67] was 15 nM. Same read-out and setting: the value for `CC1CCC(COc2cccc(-c3cn([C@H]4C[C@@H](CN5CCC5)C4)c4ncnc(N)c34)c2)O1` (stereo partly drawn) [Example 5, cis-7-(3-azetidin-1-ylmethyl-cyclobutyl)-5-[3-(5-methyl-tetrahydro-furan-2-ylmethoxy)-phenyl]-7H-pyrrolo[2,3-d]pyrimidin-4-ylamine] was 51 to 58 nM; that for `Nc1ncnc2c1c(-c1cccc(OCC34CCC(CC3)O4)c1)cn2C1CCC(c2cnco2)CC1` [Example 150, 5-(3-(7-oxabicyclo[2.2.1]heptan-1-ylmethoxy)phenyl)-7-((1S,4S)-4-(oxazol-5-yl)cyclohexyl)-7H-pyrrolo[2,3-d]pyrimidin-4-amine] was 335 nM. Take `Nc1ncnc2c1c(-c1cccc(OC[C@@H]3CCCCO3)c1)cn2[C@H]1C[C@@H](CN2CCC2)C1` (single isomer, unassigned) [Example 3]: in data set [1], the “formation of the phenolic metabolite X” value is “no evidence of formation”; the “metabolic stability relative to ex.102 of WO02/092559” value is listed as “Greater metabolic stability”; the “Relative peak area … Parent” value is on record as 75.8%; the “Relative peak area after incubation, Phenol metabolite X” value is listed as “not detected”. The molecule further returned an IC50 against IGF-1R of 105 to 141 nM. Also, in data set [2], the “Relative peak area … Parent” value is on record as 81.7% and the “Relative peak area after incubation, Phenol metabolite X” value is reported as “not detected”. Molecule `NC(=O)[C@H]1[C@@H](O)CCN1C[C@H]1C[C@@H](n2cc(-c3cccc(OCC4CCCCO4)c3)c3c(N)ncnc32)C1` (stereo partly drawn) [Example 56, (2R,3S)-1-(cis-3-{4-amino-5-[3-(tetrahydro-pyran-2-ylmethoxy)-phenyl]-pyrrolo[2,3d]pyrimidin-7-yl}-cyclobutylmethyl)-3-hydroxy-pyrrolidine-2-carboxylic acid amide] displayed an IC50 against IGF-1R of 97 nM. Consider `NC[C@H]1CC[C@@H](n2cc(-c3cccc(OCC45CCC(CC4)O5)c3)c3c(N)ncnc32)CC1` [Example 134, 5-(3-(7-oxabicyclo[2.2.1]heptan-1-ylmethoxy)phenyl)-7-((1S,4S)-4-(aminomethyl)cyclohexyl)-7H-pyrrolo[2,3-d]pyrimidin-4-amine], for which half-maximal inhibition at IGF-1R (IC50) was put at 227 nM. In the case of `Nc1ncnc2c1c(-c1cccc(OCC3CCCCO3)c1)cn2C1CC(CN2CC[C@@H](F)C2)C1` (stereo partly drawn) [Example 27, 7-[3-((R)-3-fluoro-pyrrolidin-1-ylmethyl)-cyclobutyl]-5-[3-(tetrahydro-pyran-2-ylmethoxy)-phenyl]-7H-pyrrolo[2,3-d]pyrimidin-4-ylamine], half-maximal inhibition on IGF-1R (IC50) was put at 345 nM. Regarding `Nc1ncnc2c1c(-c1cccc(OCC34CCC(CC3)O4)c1)cn2[C@H]1C[C@@H](N2CC3CC2CN3CCO)C1` (relative stereo) [Example 174, 2-[5-(cis-3-{4-amino-5-[3-(7-oxa-bicyclo[2.2.1]hept-1-ylmethoxy)-phenyl]-pyrrolo[2,3-d]pyrimidin-7-yl}cyclobutyl)-2,5-diaza-bicyclo[2.2.1]hept-2-yl]-ethanol], the 50% inhibitory concentration (IC50) at IGF-1R was 303 nM.

On IGF-1R, `CC1(C)CCC(COc2cccc(-c3cn([C@H]4C[C@H](CN5CCC[C@@H]5C(N)=O)C4)c4ncnc(N)c34)c2)O1` (stereo partly drawn) [Example 72, (R)-1-(trans-3-{4-amino-5-[3-(5,5-dimethyl-tetrahydro-furan-2-ylmethoxy)-phenyl]pyrrolo[2,3-d]pyrimidin-7-yl}-cyclobutylmethyl)-pyrrolidine-2-carboxylic acid amide] returned an IC50 of 57 nM. On the same count and under the same terms, to `Nc1ncnc2c1c(-c1cccc(OCC3CCCCO3)c1)cn2[C@H]1C[C@@H](CN2CC[C@@H](O)C2)C1` (stereo partly drawn) [Example 33, (R)-1-(cis-3-{4-amino-5-[3-(tetrahydro-pyran-2-ylmethoxy)-phenyl]-pyrrolo[2,3-d]pyrimidin-7-yl}-cyclobutylmethyl)-pyrrolidin-3-ol] belongs 235 nM.
